Data on four molecules can be found in patent US20080317723A1, “LYMPHATIC ENDOTHELIAL CELLS MATERIALS AND METHODS” (VEGENICS LIMITED, priority 2001, published 2008).

For one assay, the system named is p42/p44 MAPK. Nature of the assay: p42/p44 MAPK Thr202/Tyr204 phosphorylation in HMVE cells, Western blot. Type of assay: cell-based, human. As to conditions: minimum growth factor concentrations giving maximal activation. How it is done:
(§1) Western blot analysis. Endothelial cells were cultured on 35 mm dishes to near confluence, starved for 24 h in serum free medium and stimulated as indicated. Wortmannin ([…]), LY294002 ([…]), PD98059 (10-25 μM) or GF109203X (2.5-5 μM) were added 1-3 h before stimulation, where indicated. DMSO, into which the inhibitors were dissolved, was used as a control. After the stimulation, the cells were lysed in lysis buffer (50 mM HEPES, pH 7.5, 150 mM NaCl, 10 mM EDTA, 100 mM NaF, 1% TritonX-100 supplemented with 2 mM Na3VO4, 0.5 mM PMSF, 100 U/ml approtinin and 10 μg/ml leupeptin). Clarified lysates were separated by SDS-PAGE, transferred to nitrocellulose and immunoblotted using the phosphospecific antibodies for Akt-Ser473, Akt-Thr308, p42/44 MAPK-Thr202/Tyr204 or CREB-Ser133. The bound antibodies were detected using horseradish peroxidase conjugated secondary antibodies and enhanced chemiluminescence detection system. The blots were stripped and reprobed with antibodies against Akt, MAPK or CREB for quantification by reading the optical densities of the signals with Multi-Analyst 2.0.1 program (Bio-Rad).
(§2) The p42/p44 MAPK activation was detected by Western blotting using phospho-Thr202/Tyr204-MAPK specific antibodies and CREB phosphorylation using phospho-Ser133 specific antibodies. The growth factor concentrations used were: VEGF 10 ng/ml, VEGF-C 100 ng/ml and VEGF-C156S 500 ng/ml. […] Effects of inhibition of protein kinase C by GF109203X, MEK1 by PD98059 and PI-3 kinase by LY294002 on p42/p44 MAPK Thr202/Tyr204 phosphorylation, CREB Ser133 phosphorylation and Akt Ser473 phosphorylation in HMVE cells. The growth factor concentrations used were: VEGF 1 ng/ml, VEGF-C 10 ng/ml and VEGF-C156S 500 ng/ml
On the technique in general: A western blot detects proteins with antibodies after separation by electrophoresis.

For the next assay, the system named is CREB. Nature of the assay: CREB Ser133 phosphorylation in HMVE cells, Western blot. Type of assay: cell-based, human. As to conditions: HMVE cells. How it is done:
as §1, §2

Another assay has as its target mVEGFR-2 (Mus musculus, UniProt P35918). Particulars: mVEGFR-2, monovalent; reference: Baldwin et al. 2001; cited from earlier work.
For another assay, the target named is mVEGFR-3 (Mus musculus, UniProt P35917). As to conditions: reference: Baldwin et al. 2001; cited from earlier work.

Entries after “also recorded” stand apart in the source; their conditions may differ.

Chain of mVEGFR-2 (P35918 20-1345): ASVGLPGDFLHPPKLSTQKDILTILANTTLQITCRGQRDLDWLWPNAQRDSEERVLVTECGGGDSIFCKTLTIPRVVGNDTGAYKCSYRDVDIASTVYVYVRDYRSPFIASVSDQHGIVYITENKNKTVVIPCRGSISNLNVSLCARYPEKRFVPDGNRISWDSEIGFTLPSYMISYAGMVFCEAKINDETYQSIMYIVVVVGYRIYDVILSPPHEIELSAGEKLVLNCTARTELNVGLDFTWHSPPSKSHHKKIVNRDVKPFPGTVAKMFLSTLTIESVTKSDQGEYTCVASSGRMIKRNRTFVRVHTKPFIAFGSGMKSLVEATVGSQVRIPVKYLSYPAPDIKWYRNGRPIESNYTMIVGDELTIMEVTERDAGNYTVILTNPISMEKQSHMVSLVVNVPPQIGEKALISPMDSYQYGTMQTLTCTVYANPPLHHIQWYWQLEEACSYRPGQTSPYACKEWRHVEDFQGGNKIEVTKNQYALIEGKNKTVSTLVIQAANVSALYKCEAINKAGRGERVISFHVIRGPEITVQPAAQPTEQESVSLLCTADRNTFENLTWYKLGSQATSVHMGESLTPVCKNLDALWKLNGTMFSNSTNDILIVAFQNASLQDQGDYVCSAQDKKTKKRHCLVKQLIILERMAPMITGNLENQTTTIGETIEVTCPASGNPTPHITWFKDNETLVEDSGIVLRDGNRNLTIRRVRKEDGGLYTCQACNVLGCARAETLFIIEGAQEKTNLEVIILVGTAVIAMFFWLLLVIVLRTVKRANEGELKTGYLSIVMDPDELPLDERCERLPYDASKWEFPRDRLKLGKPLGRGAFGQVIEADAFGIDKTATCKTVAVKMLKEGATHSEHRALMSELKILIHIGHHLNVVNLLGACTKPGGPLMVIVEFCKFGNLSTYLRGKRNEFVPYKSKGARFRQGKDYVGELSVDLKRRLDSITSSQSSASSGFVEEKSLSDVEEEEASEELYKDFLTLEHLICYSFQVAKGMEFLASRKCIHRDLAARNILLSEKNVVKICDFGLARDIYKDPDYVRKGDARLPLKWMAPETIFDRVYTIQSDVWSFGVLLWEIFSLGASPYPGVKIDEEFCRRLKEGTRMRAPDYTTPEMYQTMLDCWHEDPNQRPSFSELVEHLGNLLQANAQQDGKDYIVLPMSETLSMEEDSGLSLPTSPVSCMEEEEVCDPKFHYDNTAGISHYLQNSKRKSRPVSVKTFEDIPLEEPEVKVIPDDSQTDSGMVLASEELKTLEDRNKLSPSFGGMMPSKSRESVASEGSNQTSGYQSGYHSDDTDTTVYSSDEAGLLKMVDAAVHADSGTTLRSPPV
Chain of mVEGFR-3 (P35917 25-1363): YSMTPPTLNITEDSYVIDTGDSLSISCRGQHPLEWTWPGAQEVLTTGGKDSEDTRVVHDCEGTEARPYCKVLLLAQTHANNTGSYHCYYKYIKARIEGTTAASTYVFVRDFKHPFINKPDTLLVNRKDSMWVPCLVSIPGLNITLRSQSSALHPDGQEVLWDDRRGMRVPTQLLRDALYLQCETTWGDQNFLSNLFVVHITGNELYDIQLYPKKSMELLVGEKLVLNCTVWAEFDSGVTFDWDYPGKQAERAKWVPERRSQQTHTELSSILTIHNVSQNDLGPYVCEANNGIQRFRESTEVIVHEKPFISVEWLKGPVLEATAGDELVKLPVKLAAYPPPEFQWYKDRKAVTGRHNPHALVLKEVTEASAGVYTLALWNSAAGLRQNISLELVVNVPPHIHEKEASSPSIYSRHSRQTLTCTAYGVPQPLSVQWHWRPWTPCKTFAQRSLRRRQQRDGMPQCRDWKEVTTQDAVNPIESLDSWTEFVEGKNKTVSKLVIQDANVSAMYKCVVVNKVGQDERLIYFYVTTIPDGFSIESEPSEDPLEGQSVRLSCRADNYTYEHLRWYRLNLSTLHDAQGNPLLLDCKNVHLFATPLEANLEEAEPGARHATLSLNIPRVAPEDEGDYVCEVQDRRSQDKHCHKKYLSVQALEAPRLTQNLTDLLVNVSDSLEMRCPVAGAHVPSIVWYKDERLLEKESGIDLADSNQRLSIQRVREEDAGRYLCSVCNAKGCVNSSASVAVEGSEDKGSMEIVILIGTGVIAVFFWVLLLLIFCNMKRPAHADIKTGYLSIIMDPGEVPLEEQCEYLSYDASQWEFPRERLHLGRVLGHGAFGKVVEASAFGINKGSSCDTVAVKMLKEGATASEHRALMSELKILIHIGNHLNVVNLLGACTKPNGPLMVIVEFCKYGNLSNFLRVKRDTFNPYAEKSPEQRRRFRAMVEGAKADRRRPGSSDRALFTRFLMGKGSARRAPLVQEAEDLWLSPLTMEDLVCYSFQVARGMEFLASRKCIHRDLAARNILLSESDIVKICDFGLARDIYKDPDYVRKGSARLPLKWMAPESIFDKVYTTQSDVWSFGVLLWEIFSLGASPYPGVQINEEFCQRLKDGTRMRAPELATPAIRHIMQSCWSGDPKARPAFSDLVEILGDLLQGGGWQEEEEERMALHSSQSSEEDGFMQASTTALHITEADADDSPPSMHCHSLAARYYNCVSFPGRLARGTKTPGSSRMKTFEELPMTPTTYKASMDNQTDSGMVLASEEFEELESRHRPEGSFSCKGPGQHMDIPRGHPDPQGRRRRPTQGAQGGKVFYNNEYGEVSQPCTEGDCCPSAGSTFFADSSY

For `CN(C)CCCn1cc(C2=C(c3c[nH]c4ccccc34)C(=O)NC2=O)c2ccccc21` [GF109203X, Bisindolylmaleimide I], the “effect on p42/44 MAPK phosphorylation induced by VEGF, VEGF-C or VEGF-C156S” value in the assay on p42/p44 MAPK was “completely blocked”. In addition, in the assay with CREB, the “effect of inhibitor on VEGF induced CREB phosphorylation” value was “completely blocked” and the “effect of inhibitor on VEGF-C induced CREB phosphorylation” value was “completely blocked”.

Consider `COc1cccc(-c2cc(=O)c3ccccc3o2)c1N` [PD98059], for which, in the assay with CREB, the “effect of inhibitor on VEGF induced CREB phosphorylation” value is reported as “but not VEGF induced CREB phosphorylation; also recorded: did not inhibit VEGF induced CREB phosphorylation” and the “effect of inhibitor on VEGF-C induced CREB phosphorylation” value is “inhibited VEGFC; also recorded: decreased phosphorylation of CREB upon VEGFC stimulation”.

For `N#CC(=C(/N)Sc1ccccc1N)/C(C#N)=C(\N)Sc1ccccc1N` [U0126], in the assay on CREB, the “effect of inhibitor on VEGF induced CREB phosphorylation” value was “but not VEGF induced CREB phosphorylation” and the “effect of inhibitor on VEGF-C induced CREB phosphorylation” value is “inhibited VEGFC”.

B1: mVEGF-D: mature form of mouse VEGF-D, data from Baldwin et al. 2001 (protein, UniProt P97946 94-210, looked up)
Vascular endothelial growth …: FAATFYDTETLKVIDEEWQRTQCSPRETCVEVASELGKTTNTFFKPPCVNVFRCGGCCNEEGVMCMNTSTSYISKQLFEISVPLTSVPELVPVKIANHTGCKCLPTGPRHPYSIIRR
Regarding B1, in the assay with mVEGFR-2, the KD entry is given as “no binding”, the Ka entry is “no binding” and the Kd result is “no binding”. In addition, the Ka in the assay with mVEGFR-3 is 8000 M⁻¹ s⁻¹.
